Data from the OligoGym collection.
Values joined by “and” are separate entries in the source; they are usually repeats but may differ in a detail not shown here. Equal entries are not always repeated. After the bases stand the sugars from the 5' end (letter, count) and the backbone: PS all phosphorothioate, else s phosphorothioate and o phosphodiester by linkage. Methylation of C is not given here. e = 2'-O-(2-methoxyethyl) (MOE); k = constrained ethyl (cEt); d = 2'-deoxy (DNA)

Target: IRF4
Settings: ASO

Sequence	target mRNA inhibition (MM.1R, 1 µM)	target mRNA inhibition (SK-MEL-28, 4 µM)	other results
ACTAATTCCATAGAGC (sugars k3 d10 k3, PS)	-17%	79%	target mRNA inhibition (MM.1R, 0.0625 µM): -18%; target mRNA inhibition (MM.1R, 0.074 µM): -12%; target mRNA inhibition (MM.1R, 0.222 µM): -13%; target mRNA inhibition (MM.1R, 0.25 µM): -12%; target mRNA inhibition (MM.1R, 0.666 µM): -10%; target mRNA inhibition (MM.1R, 2 µM): -4%; target mRNA inhibition (MM.1R, 4 µM): -6%
AAACAGAGACGCGGTG (sugars k3 d10 k3, PS)	–	18%	–
TAGAATGCATAACACG (sugars k3 d10 k3, PS)	8%	–	–
GCCCGGCCGGGCCTTC (sugars k3 d10 k3, PS)	-4%	–	–
GATAGCTGAGCTGATC (sugars k3 d10 k3, PS)	–	32%	–
ACCACAAGCAGTGATG (sugars k3 d10 k3, PS)	1%	–	–
CCCACGCGGGAGGCTC (sugars k3 d10 k3, PS)	-23%	–	–
CTTCAACAGCACTGTC (sugars k3 d10 k3, PS)	–	56%	–
GACTCAAGAAAATAGG (sugars k3 d10 k3, PS)	–	64%	–
TTCAACAGCACTGTCC (sugars k3 d10 k3, PS)	–	65%	–
TTGAAAGATTCAGCCT (sugars k3 d10 k3, PS)	–	3%	–
ACTGTTACCGATGCTT (sugars kkdddddddddkekek, PS)	30% and 18%	–	–
CAATAAAATGTCACGC (sugars k3 d10 k3, PS)	–	47%	–
CCCAATAGTCTAGCTG (sugars k3 d10 k3, PS)	–	56%	–
GCCTGAGTTACCGCAT (sugars k3 d10 k3, PS)	13%	70%	target mRNA inhibition (MM.1R, 0.0625 µM): -1%; target mRNA inhibition (MM.1R, 0.074 µM): -3%; target mRNA inhibition (MM.1R, 0.222 µM): -5%; target mRNA inhibition (MM.1R, 0.25 µM): 0%; target mRNA inhibition (MM.1R, 0.666 µM): -9%; target mRNA inhibition (MM.1R, 2 µM): 5%; target mRNA inhibition (MM.1R, 4 µM): 41%
GGTGCTCCTAAATCAC (sugars k3 d10 k3, PS)	-1%	–	–
AGTATGAGAAACGGCC (sugars kkdddddddddkekek, PS)	3%	–	–
CAAGACAAGGGTTTGA (sugars k3 d10 k3, PS)	-3%	–	–
GCATGCAAGCCCGTTA (sugars k3 d10 k3, PS)	–	-1%	–
TCAAACCCTACTGGGT (sugars k3 d10 k3, PS)	–	8%	–
CCGCAGCTCACCGCGC (sugars k3 d10 k3, PS)	–	36%	–
ATCTAATCCACAATCA (sugars k3 d10 k3, PS)	–	30%	–
TACAAGGTCTGAGTTG (sugars k3 d10 k3, PS)	-6%	–	–
ATCAGATTGAATCCAT (sugars k3 d10 k3, PS)	23%	–	–

Sequence	target mRNA inhibition (MM.1R, 1 µM)	target mRNA inhibition (SK-MEL-28, 4 µM)	other results
TTATGGACCACGCAGC (sugars k3 d10 k3, PS)	–	31%	–
AATACGACAACTTTCC (sugars k3 d10 k3, PS)	–	50%	–
ACAGGCGCGGACGCAC (sugars k3 d10 k3, PS)	–	20%	–
GAAGTTTACACTGGAT (sugars kkddddddddddkeke, PS)	46%	–	–
GGGCAACTTTAACCAT (sugars k3 d10 k3, PS)	–	8%	–
GGGTAGAGCAGCTCCC (sugars k3 d10 k3, PS)	-16%	–	–
CAGAATGGCGAGTTGG (sugars k3 d10 k3, PS)	31%	–	–
GTCTGAGTTGTACAGG (sugars k3 d10 k3, PS)	52% and 57%	–	–
ACTTTTAGAGAGGAGA (sugars k2 d9 e3 k2, PS)	36%	–	–
CTTATTATTTATGAGC (sugars k3 d10 k3, PS)	–	37%	–
CTATAGTGTTCCAGGA (sugars e1 k2 d9 k2 e2, PS)	8%	–	–
CAAAGAGCTTGCAGGT (sugars k3 d10 k3, PS)	–	4%	–
TGTGTATTACTCTTAG (sugars k3 d10 k3, PS)	75% and 62%	–	target mRNA inhibition (MM.1R, 0.0625 µM): 3%; target mRNA inhibition (MM.1R, 0.25 µM): 20%; target mRNA inhibition (MM.1R, 4 µM): 93%
GTTCCTGTCACCTGGC (sugars k3 d10 k3, PS)	–	49%	–
GGCTCCTACATGTTTG (sugars k3 d10 k3, PS)	–	-46%	–
TCTATGGGATTATATA (sugars k3 d10 k3, PS)	–	26%	–
GCAACACGGGAATTTC (sugars k3 d10 k3, PS)	–	66% and 74%	–
TTGGTTGGCTGGTCTT (sugars kdddddddddkekeke, PS)	-7%	–	–
TCCTTTCCTACAGATC (sugars k3 d10 k3, PS)	–	33%	–
GGAGTGATCTCTGTGG (sugars k3 d10 k3, PS)	–	68%	–
CTAAAACTGCGCTCTC (sugars k3 d10 k3, PS)	–	24%	–
GACGACTTAAGCTAAA (sugars k3 d10 k3, PS)	–	62%	–
TAAATTCTAGTTTGCC (sugars k3 d10 k3, PS)	–	68%	–
TTTACACCGTTGCTCA (sugars k3 d10 k3, PS)	3%	–	–

Sequence	target mRNA inhibition (MM.1R, 1 µM)	target mRNA inhibition (SK-MEL-28, 4 µM)	other results
CAATCATGATATTAGA (sugars k3 d10 k3, PS)	–	38%	–
GTAGTATGAGAAACGG (sugars e1 k2 d9 k2 e2, PS)	29%	–	–
CCGTTCCTTTTTTAGT (sugars k3 d10 k3, PS)	-3%	–	–
GTGGAAACGAGAACGC (sugars k3 d10 k3, PS)	–	3%	–
CACTAAAGACTATTAG (sugars k3 d10 k3, PS)	–	5%	–
TTTTATGGACCACGCA (sugars k3 d10 k3, PS)	–	31%	–
CCGCAAAAGAAACGAG (sugars k3 d10 k3, PS)	-7%	–	–
CAGACATACCTACAAG (sugars k3 d10 k3, PS)	–	44%	–
ATAGAGCCAGAGCAGT (sugars k3 d10 k3, PS)	–	66%	–
TACTTAAGCAAGTGGA (sugars k3 d10 k3, PS)	–	75% and 71%	–
TCCCTCCAGCTTCGGT (sugars k3 d10 k3, PS)	-21%	–	–
AGTATGAGAAACGGCC (sugars k3 d9 k3 e1, PS)	7%	–	–
CTCTCCAGGTGGCTCA (sugars k4 d8 k4, PS)	–	12%	–
AGCTGCGGAGCCTGGG (sugars k3 d10 k3, PS)	31%	–	–
CAAATGACTTAGTCAG (sugars k3 d10 k3, PS)	–	55%	–
TTCCGGGTGTGGCTGA (sugars k3 d10 k3, PS)	25%	–	–
TTCCAGCAAGACCTAA (sugars k3 d10 k3, PS)	–	27%	–
GAAAAGCAGCGAAAAG (sugars k3 d10 k3, PS)	–	2%	–
TATAGTAGGTAAGATC (sugars k3 d10 k3, PS)	–	13%	–
GCAGAAACAGCCCACT (sugars k3 d10 k3, PS)	–	41%	–
AGTCATCACTCTAGTC (sugars k3 d10 k3, PS)	–	53%	–
GCTGCCACTGGTAACT (sugars k3 d10 k3, PS)	–	26%	–
AGTGATGTCAGGTTTT (sugars k3 d9 k3 e1, PS)	65%	–	target mRNA inhibition (MM.1R, 0.074 µM): 13%; target mRNA inhibition (MM.1R, 0.222 µM): 40%; target mRNA inhibition (MM.1R, 0.666 µM): 64%; target mRNA inhibition (MM.1R, 2 µM): 86%
CAGTGATGTCAGGTTT (sugars kddddddddddkekek, PS)	46%	–	–

Sequence	target mRNA inhibition (MM.1R, 1 µM)	target mRNA inhibition (SK-MEL-28, 4 µM)	other results
ATTCTTAGAATGCATA (sugars k3 d10 k3, PS)	–	38%	–
CAGTGCTCTTTAACAA (sugars k3 d10 k3, PS)	–	37%	–
TCCCGAGGCCGGAGAC (sugars k3 d10 k3, PS)	–	-27%	–
CAGTTGTAAATGAGTC (sugars kkdddddddddekeke, PS)	72%	–	target mRNA inhibition (H929, 0.00067 µM): 1%; target mRNA inhibition (H929, 0.002 µM): 27%; target mRNA inhibition (H929, 0.00667 µM): 45%; target mRNA inhibition (H929, 0.02 µM): 60%; target mRNA inhibition (H929, 0.04 µM): 34%; target mRNA inhibition (KMS11, 0.2 µM): 83% and 90%; target mRNA inhibition (MM.1R, 0.074 µM): 12%; target mRNA inhibition (MM.1R, 0.222 µM): 39%; target mRNA inhibition (MM.1R, 0.666 µM): 65%; target mRNA inhibition (MM.1R, 2 µM): 88%
GTAATTTTAAGGCCCT (sugars k3 d10 k3, PS)	–	55%	–
GATAGGTATACTTAAG (sugars k3 d10 k3, PS)	–	51%	–
CAAGACAAATCTTCTG (sugars k3 d10 k3, PS)	–	13%	–
TTGAAATAAGCTCATC (sugars k3 d10 k3, PS)	–	33%	–
GTATTTGTCGAGATCA (sugars k3 d10 k3, PS)	–	59%	–
TGAGAAAGCATGGCTC (sugars k3 d10 k3, PS)	–	40%	–
AAGGAACAAGTGTATC (sugars k3 d10 k3, PS)	13%	–	–
CTCTATAGTGTTCCAG (sugars e1 k2 d9 k2 e2, PS)	59%	–	target mRNA inhibition (MM.1R, 0.074 µM): 20%; target mRNA inhibition (MM.1R, 0.222 µM): 37%; target mRNA inhibition (MM.1R, 0.666 µM): 53%; target mRNA inhibition (MM.1R, 2 µM): 75%
TAGACTGACAGCCGAA (sugars k3 d10 k3, PS)	3%	–	–
CAATACTGTAAGGGCT (sugars k3 d10 k3, PS)	–	56%	–
CAGTGATGTCAGGTTT (sugars kkkdddddddddkeke, PS)	34%	–	–
CATCAGAAATCACGAG (sugars k3 d10 k3, PS)	–	55%	–
GCACACGCAGCCTCTA (sugars k3 d10 k3, PS)	–	5%	–
GGTAAGATCTCCATGG (sugars k3 d10 k3, PS)	–	45%	–
CTATGCTGAACCCCAC (sugars k3 d10 k3, PS)	–	1%	–
AACTTATAGCACTCTC (sugars k3 d10 k3, PS)	–	28%	–
CATTGGAGGAGGGTTG (sugars k3 d10 k3, PS)	–	-2%	–
ATGTGTATTACTCTTA (sugars kddddddddddkekek, PS)	17% and 4%	–	–
ACCTACCTGCCCTTGG (sugars k3 d10 k3, PS)	–	28%	–
